pEC50: −log10 of the molar value.
Test: Inhibition of EthR in Mycobacterium tuberculosis H37Rv-GFP infected in mouse Raw 264.7 cells assessed as compound concentration allowing 0.1 uM ethionamide to inhibit 50% microbial growth by automated fluorescent confocal microscopy

| SMILES | pEC50 |
| --- | --- |
| COc1cccc(SCC(=O)Nc2ccc(-c3nc4ccccc4s3)cc2)c1 | < 5.00 |
| COc1cccc(OCC(=O)Nc2ccc(Cl)cc2)c1 | 5.80 |
| Cc1ccc2cc(NC(=O)COc3ccccc3F)ccc2n1 | 5.66 |
| N#Cc1cccc(OCC(=O)Nc2ccc(-c3nc4ccccc4s3)cc2)c1 | 6.47 |
| COc1cccc(OCC(=O)Nc2ccc(-c3nc4ccccc4s3)cc2)c1 | 6.68 |
| Cc1ccc(-n2nc3ccc(NC(=O)COc4ccccc4C)cc3n2)cc1 | < 5.00 |

— BindingDB's records for doi:10.1021/jm300377g (University of Lille, 2012)
